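Test compounds were applied to cells in 96-well plates for 48 hours at 5 doses. GI50 marks 50% less growth.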 Active and inactive are the calls of the source. Cut-off read from the data, not from the text of the source: active = GI50 up to about 1.1 µM and inactive = higher. Where a SMILES comes first, the peptide text is derived from it. [ ]: non-standard residue; d: D form. The star is where a group is joined. Bn2Val = CC(C)[C@@H](C(=O)*)N(Cc1ccccc1)Cc1ccccc1; NH(3,4-diMeO-benzyl) = COc1ccc(CN*)cc1OC; NMeV = CN[C@H](C(=O)O)C(C)C
Key:
Test in all cases: NCI-60 cell line screen, 48 h
786-0 = system: 786-0
A498 = system: A498
A549 = system: A549
ACHN = system: ACHN
BT-549 = system: BT-549
CAKI-1 = system: CAKI-1
CCRF-CEM = system: CCRF-CEM
COLO 205 = system: COLO 205
DU-145 = system: DU-145
EKVX = system: EKVX
HCT-116 = system: HCT-116
HCT-15 = system: HCT-15
HL-60 = system: HL-60
HOP-62 = system: HOP-62
HOP-92 = system: HOP-92
HT-29 = system: HT-29
Hs-578T = system: Hs-578T
IGROV-1 = system: IGROV-1
K562 = system: K562
KM12 = system: KM12
LOX IMVI = system: LOX IMVI
M14 = system: M14
MDA-MB-231 = system: MDA-MB-231
MDA-MB-435 = system: MDA-MB-435
MDA-N = system: MDA-N
MOLT-4 = system: MOLT-4
Malme-3M = system: Malme-3M
NCI-H226 = system: NCI-H226
NCI-H23 = system: NCI-H23
NCI-H460 = system: NCI-H460
NCI-H522 = system: NCI-H522
NCI/ADR-RES = system: NCI/ADR-RES
OVCAR-3 = system: OVCAR-3
OVCAR-4 = system: OVCAR-4
OVCAR-5 = system: OVCAR-5
OVCAR-8 = system: OVCAR-8
PC-3 = system: PC-3
RXF 393 = system: RXF 393
SF-268 = system: SF-268
SF-295 = system: SF-295
SF-539 = system: SF-539
SK-MEL-28 = system: SK-MEL-28
SK-MEL-2 = system: SK-MEL-2
SK-MEL-5 = system: SK-MEL-5
SK-OV-3 = system: SK-OV-3
SN12C = system: SN12C
SNB-19 = system: SNB-19
SNB-75 = system: SNB-75
SR = system: SR
SW-620 = system: SW-620
T47D = system: T47D
TK-10 = system: TK-10
U-251 = system: U-251
UACC-257 = system: UACC-257
UACC-62 = system: UACC-62
HCC 2998 = system: HCC 2998
MCF7 = system: MCF7
RPMI-8226 = system: RPMI-8226
UO-31 = system: UO-31

## COc1ccc(CNC(=O)[C@@H]2CCCN2C(=O)[C@@H]2CCCN2C(=O)[C@H](C(C)C)N(C)C(=O)[C@@H](NC(=O)[C@H](C(C)C)N(Cc2ccccc2)Cc2ccccc2)C(C)C)cc1OC (Bn2Val-V[NMeV]PP-{NH(3,4-diMeO-benzyl)})
786-0
  GI50: 10.4 µM (inactive)
A498
  GI50: 17.8 µM (inactive)
A549
  GI50: 11.7 µM (inactive)
ACHN
  GI50: 13.7 µM (inactive)
BT-549
  GI50: 14.7 µM (inactive)
CAKI-1
  GI50: 15.8 µM (inactive)
CCRF-CEM
  GI50: 4.23 µM (inactive)
COLO 205
  GI50: 9.71 µM (inactive)
DU-145
  GI50: 14.8 µM (inactive)
EKVX
  GI50: 13.4 µM (inactive)
HCT-116
  GI50: 14.4 µM (inactive)
HCT-15
  GI50: 12.1 µM
HL-60
  GI50: 3.15 µM (inactive)
HOP-62
  GI50: 15.6 µM (inactive)
HOP-92
  GI50: 14.9 µM (inactive)
HT-29
  GI50: 8.3 µM (inactive)
Hs-578T
  GI50: 51.3 µM (inactive)
IGROV-1
  GI50: 3.92 µM (inactive)
K562
  GI50: 7.55 µM (inactive)
KM12
  GI50: 21.4 µM (inactive)
LOX IMVI
  GI50: 4.26 µM (inactive)
M14
  GI50: 14.6 µM (inactive)
MDA-MB-231
  GI50: 17.5 µM (inactive)
MDA-MB-435
  GI50: 12 µM (inactive)
MDA-N
  GI50: 14.7 µM (inactive)
MOLT-4
  GI50: 4.39 µM (inactive)
Malme-3M
  GI50: 25.2 µM (inactive)
NCI-H226
  GI50: 17.3 µM (inactive)
NCI-H23
  GI50: 18.9 µM (inactive)
NCI-H460
  GI50: 13.5 µM (inactive)
NCI-H522
  GI50: 8.85 µM (inactive)
NCI/ADR-RES
  GI50: 18.3 µM (inactive)
OVCAR-3
  GI50: 12 µM (inactive)
OVCAR-4
  GI50: 18 µM (inactive)
OVCAR-5
  GI50: 18.5 µM (inactive)
OVCAR-8
  GI50: 14.5 µM (inactive)
PC-3
  GI50: 6.15 µM (inactive)
RXF 393
  GI50: 11.1 µM (inactive)
SF-268
  GI50: 21.3 µM (inactive)
SF-295
  GI50: 15.1 µM (inactive)
SF-539
  GI50: 17.1 µM (inactive)
SK-MEL-28
  GI50: 16.9 µM (inactive)
SK-MEL-2
  GI50: 13.4 µM (inactive)
SK-MEL-5
  GI50: 7.5 µM (inactive)
SK-OV-3
  GI50: 16.9 µM (inactive)
SN12C
  GI50: 15 µM (inactive)
SNB-19
  GI50: 15.9 µM (inactive)
SNB-75
  GI50: 10.3 µM (inactive)
SR
  GI50: 4.54 µM (inactive)
SW-620
  GI50: 12.8 µM (inactive)
T47D
  GI50: 12.6 µM (inactive)
TK-10
  GI50: 14 µM (inactive)
U-251
  GI50: 15.7 µM (inactive)
UACC-257
  GI50: 11.3 µM (inactive)
UACC-62
  GI50: 14.5 µM (inactive)

## Cc1[nH]c(=O)[nH]c(=O)c1C(=O)N(CCO)Cc1ccccc1
A498
  GI50: > 100 µM (inactive)
ACHN
  GI50: > 100 µM (inactive)
BT-549
  GI50: > 100 µM (inactive)
CCRF-CEM
  GI50: > 100 µM (inactive)
COLO 205
  GI50: 22.3 µM (inactive)
DU-145
  GI50: > 100 µM (inactive)
EKVX
  GI50: > 100 µM (inactive)
HCC 2998
  GI50: > 100 µM (inactive)
HCT-116
  GI50: > 100 µM (inactive)
HCT-15
  GI50: > 100 µM
HL-60
  GI50: > 100 µM (inactive)
HOP-62
  GI50: > 100 µM (inactive)
HOP-92
  GI50: 27 µM (inactive)
HT-29
  GI50: > 100 µM (inactive)
Hs-578T
  GI50: 14.2 µM (inactive)
IGROV-1
  GI50: 33 µM (inactive)
K562
  GI50: > 100 µM (inactive)
KM12
  GI50: > 100 µM (inactive)
LOX IMVI
  GI50: > 100 µM (inactive)
M14
  GI50: > 100 µM (inactive)
MCF7
  GI50: > 100 µM (inactive)
MDA-MB-231
  GI50: > 100 µM (inactive)
MDA-MB-435
  GI50: > 100 µM (inactive)
MDA-N
  GI50: > 100 µM (inactive)
MOLT-4
  GI50: > 100 µM (inactive)
Malme-3M
  GI50: > 100 µM (inactive)
NCI-H226
  GI50: 17 µM (inactive)
NCI-H23
  GI50: 33 µM (inactive)
NCI-H460
  GI50: > 100 µM (inactive)
NCI-H522
  GI50: > 100 µM (inactive)
OVCAR-3
  GI50: > 100 µM (inactive)
OVCAR-4
  GI50: 29.3 µM (inactive)
OVCAR-5
  GI50: > 100 µM (inactive)
PC-3
  GI50: 24.6 µM (inactive)
RPMI-8226
  GI50: > 100 µM (inactive)
RXF 393
  GI50: 30 µM (inactive)
SF-268
  GI50: > 100 µM (inactive)
SF-295
  GI50: 35.5 µM (inactive)
SF-539
  GI50: > 100 µM (inactive)
SK-MEL-28
  GI50: > 100 µM (inactive)
SK-MEL-2
  GI50: > 100 µM (inactive)
SK-OV-3
  GI50: > 100 µM (inactive)
SN12C
  GI50: > 100 µM (inactive)
SNB-19
  GI50: > 100 µM (inactive)
SR
  GI50: > 100 µM (inactive)
SW-620
  GI50: > 100 µM (inactive)
T47D
  GI50: > 100 µM (inactive)
TK-10
  GI50: > 100 µM (inactive)
U-251
  GI50: > 100 µM (inactive)
UACC-257
  GI50: 34.7 µM (inactive)
UACC-62
  GI50: > 100 µM (inactive)
UO-31
  GI50: > 100 µM (inactive)

From ChEMBL document CHEMBL1201862, “PubChem BioAssay data set” (2004)
